Experimental data published in patent US8207167B2, “Aryl-phenyl-sulfonamide-phenylene compounds and their use” (PIMCO 2664 Limited, priority 2008, dated 2012).
Converted amounts (≈) assume the structure as drawn. Where two headings read alike, the source gives them in different places.

How the values were obtained:
[1] = In vivo pharmacokinetics in rat, oral and intravenous; parameters: species or system Sprague-Dawley rats; details: 2.5 mg/kg; for half-life: read-out: T½ (converted)
Method: Absorption and metabolic stability were studied using an in vivo pharmacokinetics assay. Drug levels were assessed using ultra-performance LC/TOF-MS.
Three male Sprague-Dawley rats, 200-300 g, were dosed per route. […] Test compound was formulated in 50:50 tetraethylene glycol:PBS for both routes. Animals were given free access to food throughout the study. On the day prior to dosing, the carotid artery was cannulated for sample collection and for the intravenous study, the jugular vein was cannulated to enable dosing.
Blood samples were taken from the carotid artery at the following time points and placed in heparinised tubes:
Oral dosing—predose, 0.25, 0.5, 1, 2, 4, 8 and 24 hours post dose.
IV dosing—predose, 0.08, 0.25, 0.5, 1, 2, 4 and 8 hours post dose.
Blood samples were centrifuged to obtain plasma, which was transferred to a separate container and frozen at −20° C.
Samples were thawed at room temperature and prepared by protein precipitation with acetonitrile in the ratio 1:2 with plasma, followed by centrifugation for 10 minutes at 16,100×g (Eppendorf 5415D, Eppendorf AG, Hamburg, Germany). The supernatants were collected for analysis. The standard samples were prepared similarly, after spiking blank rat plasma samples to study compound concentrations at 1, 2, 5, 10, 20, 50, 100, 200, 500 and 1000 ng/mL. In addition, extra samples were prepared from 0-1 hour i.v. samples by diluting 1/20 with 50% aqueous acetonitrile to avoid exceeding the linear range of the analytical method.
A Waters Acquity liquid ultra-performance chromatographic system (Waters Corp., Milford, Mass., USA) with autosampler, vacuum degasser and column oven was used. The analytical column used for all compounds was a Waters BEH C18, (2.1×50 mm, 1.7 μm, Waters Corp, Milford, Mass., USA) together with a 0.2 μm on-line filter before the column. The eluents were 0.1% acetic acid (A, pH 3.2) and methanol (B). Gradient elution from 5% to 60% B in two minutes was employed, followed by one minute gradient to 90% B and column equilibration. The flow rate was 0.5 mL/min and the column oven temperature was 35° C. The flow was directed to the MS via Water Acquity photo-diode-array (PDA) detector. LC/TOF-MS data were recorded with a Micromass LCT Premier XE time-of-flight (TOF) mass spectrometer (Micromass Ltd., Manchester, England) equipped with a LockSpray electrospray ionization source. A positive ionization mode of electrospray was used for all compounds. The mass range of m/z 100-900 was acquired. The W-option of the reflector was used, and the DRE (dynamic range enhancement) option was set to on. The mass spectrometer and HPLC system were operated under Micromass MassLynx 4.1 software. Leucine enkephalin ([M+H]^+ m/z 556.2771) was used as a lock mass compound for accurate mass measurements and was delivered into the LockSpray probe with a syringe pump. MassLynx 4.1 software was used for controlling the instrumentation and for data processing.
The pharmacokinetic parameters for the test compounds were calculated by WinNonlin Pro (Pharsight Corp, CA) using standard noncompartmental methods. The elimination phase half-life (t1/2) was calculated by least-squares regression analysis of the terminal linear part of the log concentration−time curve. The area under the plasma concentration−time curve (AUC) was determined by use of the linear trapezoidal rule up to the last measurable concentration and thereafter by extrapolation of the terminal elimination phase to infinity. The tentative oral bioavailability (F) was calculated by dividing the AUC (0-24 hours) after p.o. administration by the AUC (0-8 hours) after i.v. administration, i.e., F=AUC(p.o.)/AUC(i.v), and reported as percentages (%).

[2] = Thermodynamic aqueous solubility in fasted state simulated intestinal fluid (FaSSIF); type: physicochemical; details: fasted state simulated intestinal fluid (FaSSIF), pH 6.5, thermodynamic from solid, 25° C., 24 hours equilibration, HPLC
Method: (§1) Initial screening of candidate compounds was performed using in vitro assays to determine potency, metabolic stability and solubility in biologically relevant fluids. Potency was assessed using a viability assay based on the survival of the J774 macrophage cell line. Macrophages are closely related to osteoclasts and have been used previously as a model system for osteoclast survival (see, e.g., Luckman et al., 1998). Like osteoclasts, J774 macrophages are dependent on continued NFκB activation for survival, thereby providing a valuable screen for compounds with anti-inflammatory activity. Metabolic stability was measured by determining the rate of disappearance of compound in the presence of human liver microsomal preparations, as quantified by LC-MS/MS. Solubility was measured by equilibration of the compound in fasted state simulated intestinal fluid (FaSSIF) and quantified by HPLC.
Thermodynamic aqueous solubility was measured by equilibration of a number of APSAP compounds, in the solid state, with fasted state simulated intestinal fluid (FaSSIF) and quantified by HPLC. Measurement of solubility in FaSSIF provides a valuable model for the prediction of drug dissolution following oral administration.
Preparation of blank FaSSIF: NaOH pellets (174 mg), NaH2PO4.2H2O (2.235 g), and NaCl (3.093 g) were dissolved in 500 mL of water. The pH was adjusted to 6.5 using 1 M NaOH solution.
Preparation of FaSSIF: Sodium taurocholate (165 mg) was dissolved in 25 mL blank FaSSIF. 0.6 mL of a solution containing 100 mg/mL lecithin in methylene chloride was added. The methylene chloride was eliminated under vacuum at about 40° C. The vacuum was drawn for 15 minutes at 250 mbar, followed by 15 minutes at 100 mbar. […] After cooling to room temperature, the solution was then adjusted to 100 mL with blank FaSSIF.
The suspension was equilibrated at 25° C. for 24 hours, and then the pH was measured. The suspension was then filtered through a glass fibre C filter into a 96-well plate. The filtrate was then diluted by a factor of 100. Quantification was made by HPLC with reference to a standard solution of compound at approximately 0.1 mg/mL in DMSO. Different volumes of the standard, diluted and undiluted sample solutions were injected. The solubility was calculated using the peak areas determined by integration of the peak found at the same retention time as the principal peak in the standard injection. Analysis was performed on an Agilent HP1100 series system equipped with a diode array detector and using ChemStation software vB.02.01-SR1.

[3] = Human liver microsomal stability assay; type: in vitro ADME; details: pooled human liver microsomes 0.5 mg/mL, test compound 3 μM, 45 minute incubation, NADPH; for half-life at 3 μM: both sexes, pH 7.4
Method: as §1
Metabolic stability of APSAP derivatives was measured by determination of the rate of compound disappearance when incubated in the presence of human liver microsomes. Liver microsomes are prepared from the endoplasmic reticulum of hepatocytes and are the primary source of the most important enzymes (cytochrome P450) involved in drug metabolism. Study of drug stability in the presence of liver microsomes is accepted as a valuable model permitting rapid prediction of in vivo drug stability.
Human liver microsomes were obtained from a commercial source. Test compounds (3 μM) were incubated with pooled liver microsomes (male and female). Samples were incubated for a 45 minute period and removed at 5 time points and test compounds were analysed by LC-MS/MS.
The final incubation volume was 25 μL. A control incubation was included for each compound tested, where 0.1 M phosphate buffer pH 7.4 was added instead of NADPH. The control compounds testosterone and 7-hydroxycoumarin were included in each experiment and all incubations were performed singularly for each compound.
Each compound was incubated for 0, 5, 15, 30, and 45 minutes. The control (minus NADPH) was incubated for 45 minutes only. The reactions were stopped by the addition of 50 μL methanol containing internal standard at the appropriate time points. The incubation plates were centrifuged at 2500 rpm for 20 minutes at 4° C. to precipitate the protein.
Following protein precipitation, the sample supernatants were combined in cassettes of up to 4 compounds and analysed using standard LC-MS/MS conditions.
From a plot of the natural logarithm of the peak area ratio (i.e., the ratio of compound peak area:internal standard peak area) against time, the gradient of the line was determined. Subsequently, half-life and intrinsic clearance were calculated using the equations below: Eliminated rate constant(k)=(−gradient). […] Intrinsic Clearance(CLint)([…])=(V×0.693)/t1/2. wherein V=Incubation volume(μL/mg microsomal protein). Pharmacokinetics Studies

J774 macrophages = test: Alamar Blue macrophage J774 viability assay; type: cell-based; details: Mus musculus, 72 hours culture with compound, Alamar Blue read-out
Method: as §1
In vitro potency as anti-inflammatory agents was determined for a number of APSAP compounds by incubation with J774 macrophages and subsequent determination of cell viability.
J774 cells were plated at 10^4 cells per well in 100 μL αMEM (α Modified Eagle Medium) in 96-well plates and grown overnight. The next day, test compounds were added to the cultures, and cultures were continued for another 72 hours. At the end of the culture period, cell survival was determined using an Alamar Blue assay as previously described (see, e.g., Nociari et al., 1998).
Alamar Blue is an oxidation-reduction sensitive indicator. The dye itself is in the oxidised state, which is blue and non-fluorescent. The dye can accept electrons from reducing species, such as NADPH and FADH, to form a reduced dye species, which is red and fluorescent. Thus the transformation from oxidised form to reduced form can be measured by fluorimetric or colourimetric means. For fluorescence measurements, 530-560 nm excitation and 590 nm emission wavelengths are typically used. For colourimetric measurements, absorbance at 570 nm (reduced form) and 600 nm (oxidised form) is typically measured. A simple calculation is performed to determine the relative quantities of the two species.
A high ratio of the reducing species, NADPH and FADH, to the corresponding oxidised species, NADP and FAD, is an indicator that cells are proliferating and viable. A low ratio indicates cells that are quiescent or non-viable.
Briefly, Alamar Blue (Biosource International) was added undiluted to each well (1:10 v/v, 10 μL). The plate was incubated at 37° C. for 3-4 hours and the fluorescence was measured at 590 nm, with a 25 nm bandwidth. A high reading indicated cells with normal viability, and a low reading indicated cells that have been damaged and are no longer proliferating normally. The controls gave a high fluorescence reading, indicating a high number of live, healthy cells. A potent test compound gave a low fluorescence reading.
The average results for each test compound (n=5) were expressed as a percent (%) of the average control value.
Addition of Compounds. All of the compounds studied were made up as 100 mM solutions in DMSO. These stock solutions were then diluted 1000-10000× in culture medium (αMEM). From these 100 μM or 10 μM solutions, convenient quantities (3-33 μL) were added directly to the wells so as to give the desired final compound concentration.

Row | SMILES | AUC ([1]; i.v.) [ng/mL/min] | half-life ([1]; male, Sprague-Dawley, plasma, iv, i.v.) [min] | bioavailability ([1]; male, Sprague-Dawley, plasma, oral, F=AUC(p.o.)/AUC(i.v.)) [%] | half-life ([1]; male, Sprague-Dawley, plasma, po, p.o.) [min] | AUC ([1]; p.o.) [ng/mL/min] | solubility at 24 h [2] [µg/mL] | T1/2 [3] | IC50 (J774 macrophages) [nM] | half-life at 3 μM [3] [min]
1 | O=S(=O)(Nc1cccc(CO)c1)c1ccc(-c2ccc(Cl)cc2Cl)cc1 [ABD455, 2′,4′-dichloro-N-(3-(hydroxymethyl)phenyl)biphenyl-4-sulfonamide, reference compound] | 9 | 31.8 | 3 | 48 | 1.2 | 40 (≈ 98 µM) | – | – | –
2 | CNCC(O)c1cccc(NS(=O)(=O)c2ccc(-c3ccc(F)cc3F)cc2)c1 (stereo not drawn) [ABD783, 2′,4′-Difluoro-N-(3-(1-hydroxy-2-(methylamino)ethyl)phenyl)biphenyl-4-sulfonamide] | – | – | – | – | – | 370 (≈ 884 µM) | Stable | 1180 | –
3 | O=S(=O)(Nc1cccc(C(O)CN2CCOCC2)c1)c1ccc(-c2ccc(F)cc2F)cc1 (stereo not drawn) [ABD785, 2′,4′-Difluoro-N-(3-(1-hydroxy-2-morpholinoethyl)phenyl)biphenyl-4-sulfonamide] | – | – | – | – | – | 210 (≈ 443 µM) | – | 4710 | 6
4 | NCc1cccc(NS(=O)(=O)c2ccc(-c3ccc(F)cc3F)cc2)c1 [ABD788, N-(3-(Aminomethyl)phenyl)-2′,4′-difluorobiphenyl-4-sulfonamide] | – | – | – | – | – | 50 (≈ 134 µM) | – | 1000 | 60
5 | CN(C)C(CO)c1cccc(NS(=O)(=O)c2ccc(-c3ccc(F)cc3F)cc2)c1 (stereo not drawn) [ABD791, N-(3-(1-(Dimethylamino)-2-hydroxyethyl)phenyl)-2′,4′-difluorobiphenyl-4-sulfonamide] | – | – | – | – | – | 3000 (≈ 6940 µM) | – | 570 | 27
6 | O=S(=O)(Nc1cccc(C(CO)N2CCOCC2)c1)c1ccc(-c2ccc(F)cc2F)cc1 (stereo not drawn) [ABD792, 2′,4′-Difluoro-N-(3-(2-hydroxy-1-morpholinoethyl)phenyl)biphenyl-4-sulfonamide] | – | – | – | – | – | 4400 (≈ 9270 µM) | – | > 30000 | 2
7 | N[C@H](CO)c1cccc(NS(=O)(=O)c2ccc(-c3ccc(F)cc3F)cc2)c1 [ABD855, (S)—N-(3-(1-Amino-2-hydroxyethyl)phenyl)-2′,4′-difluorobiphenyl-4-sulfonamide] | – | – | – | – | – | 4100 (≈ 10100 µM) | – | 860 | 289
